Measurements: patent publication US20250161399A1, “TARGETING SLC46A2-MEDIATED MUROPEPTIDE TRANSPORT TO TREAT PSORIASIS” (University of Massachusetts, priority 2021, published 2025)
Entries after “also recorded” stand apart in the source; their conditions may differ.

What was measured:
[1] = system: primary human foreskin keratinocytes; assay: Propidium Iodide (PI) uptake assay in primary human foreskin keratinocytes; format: cell-based; details: indicated iE-DAP doses, standard tissue culture
[2] = system: mouse skin (NOD1/NOD2 response); assay: neutrophil recruitment to pinnae after intradermal injection; format: in vivo; details: TCT 8 μM, iE-DAP 30 μM
Experimental: […] After 3 h, both ears were individually harvested, and stored in ice cold PBS on ice until further processing for flow cytometry staining.
Pinnae were cut into small pieces and incubated for 30 min at 37° C. in a solution of 1 mg/ml collagenase (Sigma) in DMEM media containing 10% FBS. Ice-cold FACS buffer (2% FBS in PBS) was added to skin samples to stop the reaction. Then samples were placed on 70 μm cell strainers and ground using a cell strainer pestle to create a single cell suspension. Cells were spun at 180 g for 5 min at 4° C. and resuspended in FACS buffer.
(§1) 1×10^6 cells were stained with F4/80-PE/Cy7 (1:200), CD45-alexaflour700 (1:200) and Gr1-PE (1:200) for 30 min on ice in the dark. Samples were washed three times with FACS buffer and analyzed with a Cytek Aurora cytometer. Results were analyzed with FlowJo software (Tree Star, USA).

tape stripped mouse skin = assay: neutrophil recruitment after topical application to tape stripped skin; format: in vivo; details: topical 10 μl of 30 μM iE-DAP on tape stripped skin, 3 h
Experimental: The epidermal barrier of the dorsal ear pinnae was disrupted by mild tape stripping. A small piece of surgical tape (Transpore surgical tape) was manually applied to the skin and removed, repeated 5 consecutive rounds using a fresh piece of tape for each round. Then, 10^7 CFU C. accolens or 30 μM iE-DAP in 50% glycerol was applied to one pinna and 50% glycerol was applied to contralateral pinna. After 3 h mice were euthanized, and pinnae were processed as described above.

[3] = system: mouse peritoneum (NOD1/NOD2 response); assay: neutrophil recruitment to the peritoneum after intraperitoneal injection; format: in vivo; details: 3 h, iE-DAP 30 μM, MDP 10 μM
Experimental: For peritoneal cell extraction, animals were euthanized and cells from peritoneal cavity were isolated by peritoneal lavage (58). Harvested cell suspensions were centrifuged at 300 g for 5 min at 4° C. and resuspended in FACS buffer.
as §1

[4] = system: primary mouse keratinocytes; assay: cytokine ELISAs from primary keratinocyte culture media; format: cell-based
Experimental: Adult (6-8 weeks) mouse keratinocytes were isolated from male or female animals using protocols described previously (57). In brief, tail skin was incubated in 1 mg/ml Dispase II (Roche) overnight at 4° C. The epidermis was physically removed from the dermis with tweezers following Dispase II treatment, subsequently digested with TrypLE (Thermo) for 20 min at room temperature, and keratinocytes were detached by vigorously shaking in EpiLife culture medium and filtered with a 70 μm strainer (Fisher scientific). Isolated cells were seeded at a density of 10^5 cells/cm^2 cultured with EpiLife (Gibco) in 12-well plates precoated with coating matrix (Gibco) and used between 3 and 5 days after isolation.
For cytokine ELISAs, primary keratinocytes were either mock-treated or treated with 8 μM TCT or 30 μM iE-DAP for 24 h Culture medium was harvested and centrifuged at 500 g for 15 mins and analyzed using ELISA kits detecting CXCL1 (KC), IL-6, TNF-α, IL-1α and IL-1β (R&D systems) following the manufacturer's protocols. In brief, 96-well ELISA plates were coated with capture antibody overnight at room temperature. The next day, the plate was washed three times with wash buffer and incubated with harvested media (100 μl) for 2 h followed by three washes and then probed with biotin-labelled detection antibody for 2 h. After three washes with wash buffer, plates were incubated with HRP-streptavidin for 20 min at room temperature (RT), developed with TMB (3,3′,5,5″-tetramethylbenzidine) substrate for 20 min at RT, and then stopped with IN sulfuric acid. Plate was analyzed at 450 nm with wavelength correction at 540 nm.

[5] = system: primary dermal fibroblasts; assay: CXCL1 (KC) ELISA from primary dermal fibroblasts; format: cell-based, mouse; details: iE-DAP 30 μM or IL-1α 10 ng/ml, 24 hrs
Experimental: Mouse dermal fibroblasts were isolated as described herein. In brief, mouse pinnae were incubated on a table shaker (200 rpm) in a collagenase D-pronase solution [2.5 mg/ml collagenase-D (Sigma), 20 mg/ml pronase (Sigma) diluted in 1M Tris, pH 8.0 and containing 1 μM EDTA (Sigma)] for 90 min at 37° C. Fibroblasts were then isolated by pressing digested skin through a 70 μm cell strainer, and cells were collected and cultured in RPMI 1640 medium with 10% FBS, 50 μM 2-mercaptoethanol, 100 μM asparagine, 2 mM glutamine, 1% penicillin-streptomycin for 2-4 passages before stimulating with immune elicitors, and/or harvesting media or cells.
For cytokine ELISAs from dermal fibroblast, cells were challenged with IL-1α (10 ng/ml) or 30 μM iE-DAP for 24 h, and media was collected and processed for ELISA as described above.

[6] = system: HSE dermal fibroblasts (CXCL8); assay: CXCL8 induction in Human Skin Equivalents (HSE) skin organoids; format: cell-based; details: HSE epidermis treated with 30 μM iE-DAP for 24 h
Slc46a2 = biological target: T1, Slc46a2 (Mus musculus, UniProt Q8CA03); assay: click-muropeptide uptake into keratinocytes (CalFluor 488 Azide, confocal imaging and lysate fluorescence); format: cell-based; details: WT or Nod1−/− keratinocytes, 30 μM click-iE-DAP; MTX 250 μM or unlabeled iE-DAP 30 μM
T1 construct: primary mouse keratinocytes, which express Slc46a2 and Nod1; endogenous in cells; host or cells: primary mouse epidermal keratinocytes (WT or Nod1-/-; Slc46a2-/- cells served as the negative control)
T1 sequence (Q8CA03 1-479): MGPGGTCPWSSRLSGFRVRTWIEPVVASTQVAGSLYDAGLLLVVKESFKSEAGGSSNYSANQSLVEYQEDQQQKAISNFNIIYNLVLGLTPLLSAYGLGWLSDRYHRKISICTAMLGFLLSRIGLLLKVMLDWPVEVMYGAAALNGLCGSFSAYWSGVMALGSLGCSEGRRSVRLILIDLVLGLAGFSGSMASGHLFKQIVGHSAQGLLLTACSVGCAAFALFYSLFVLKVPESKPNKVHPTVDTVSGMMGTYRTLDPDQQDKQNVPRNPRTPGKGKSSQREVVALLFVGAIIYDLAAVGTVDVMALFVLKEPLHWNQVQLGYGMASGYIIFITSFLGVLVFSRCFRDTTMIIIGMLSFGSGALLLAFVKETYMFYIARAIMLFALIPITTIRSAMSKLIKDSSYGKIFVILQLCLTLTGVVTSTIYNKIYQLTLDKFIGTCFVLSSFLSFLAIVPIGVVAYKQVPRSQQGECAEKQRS
Experimental: For visualization, mouse keratinocytes were challenged with click-iE-DAP (30 μM) or click-MDP (20 μM) 37° C. for 30-60 min, cells washed 2× with 1×PBS to remove access of click-muropeptides and fixed with 4% paraformaldehyde in PBS at RT for 10 min. Cells were permeabilized with 1% Triton-X in PBS for 10 min at RT and blocked with 1% BSA in PBS. These permeabilized cells were then incubated in click-reaction conditions (250 μM CuSO4, 35 μM BTAA, 60 μM sodium ascorbate) with 2.5 μM CalFluor 488 Azide at RT for 30 mins. Cells were then washed and mounted on slides, with DAPI containing mounting media. Slides were imaged with a Leica SP8 confocal microscope.

SMILES: NC(CCCC(NC(=O)CC[C@@H](N)C(=O)O)C(=O)O)C(=O)O (stereo in doubt) [iE-DAP, γ-D-Glu-mDAP]
- membrane permeabilization of primary human keratinocytes (PI uptake) [1]: failed to induce; also recorded: did not induce cell permeabilization
- neutrophil / leukocyte recruitment to the skin in WT mice ([2]; intradermal 10 μl, LPS 10 μg/ml, 1 to 24 h): recruited inflammatory cells
- neutrophil recruitment response in Slc46a2-deficient mice compared to WT ([2]; intradermal, 3 h, Tri-DAP 25 μM, C12-iE-DAP 20 μM, MDP 10 μM): failed to respond; also recorded: significantly reduced
- neutrophil recruitment response of WT skin (tape stripped mouse skin): responded
- neutrophil recruitment response in Slc46a2−/− mice [3]: did not respond
- neutrophil recruitment response in Slc46a3−/− mice [3]: responding normally
- IL-1α release by keratinocytes ([4]; 30 μM iE DAP, 24 h): released IL-1α
- induction of TNF, IL-6, IL-1β and IL-17 in keratinocytes ([4]; 30 μM iE-DAP, 24 hrs): not induced
- CXCL1 (KC) response of primary dermal fibroblasts [5]: did not respond; also recorded: unresponsive
- CXCL8 in HSE dermal fibroblasts [6]: induction of CXCL8; also recorded: High expression of CXCL8
- effect on cytosolic accumulation / cellular uptake of click-iE-DAP (Slc46a2): interfered
